Reference: paper PMC7134380 (Journal of the American Chemical Society, 2020)

Molecular target: T1, human ornithine aminotransferase (hOAT) (Homo sapiens, UniProt P04181)
T1 sequence (P04181 26-439 limits assumed): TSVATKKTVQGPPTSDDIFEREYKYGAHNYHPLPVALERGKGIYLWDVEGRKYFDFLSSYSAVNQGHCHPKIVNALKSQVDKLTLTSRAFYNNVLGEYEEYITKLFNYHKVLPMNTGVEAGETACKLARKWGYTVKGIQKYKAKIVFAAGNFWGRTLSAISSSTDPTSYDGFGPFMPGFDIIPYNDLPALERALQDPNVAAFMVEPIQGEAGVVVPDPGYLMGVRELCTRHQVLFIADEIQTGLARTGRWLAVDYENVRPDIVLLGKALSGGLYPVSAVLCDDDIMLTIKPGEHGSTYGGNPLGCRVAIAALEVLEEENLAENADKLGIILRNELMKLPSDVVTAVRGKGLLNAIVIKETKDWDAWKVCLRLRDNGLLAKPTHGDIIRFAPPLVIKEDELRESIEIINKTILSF
Assay: time-dependent inactivation kinetics
Assay type: biochemical
Conditions: read-out: hOAT / KI; covalent; mechanism-based inactivator (kinact/KI analysis)

- KI (inactivation): 1400 ± 41 µM
SMILES: N[C@H]1C[C@@H](C(=O)O)C[C@@H]1F [compound 1, (1R,3S,4S)-3-amino-4-fluorocyclopentane-1-carboxylic acid]
